Assay results reported in patent US20230330196A1, “IMMUNOSUPPRESSIVE AGENTS” (The Trustees of Columbia University in the City of New York, priority 2020, published 2023).

Tested on: allo-reactive T cells
Assay: Mixed lymphocyte reaction, B6 SPCs cocultured with irradiated BALB/c SPCs with WT or E223A mutant MMP13
Format: cell-based, mouse
Settings: 5 days coculture
Protocol: Flow cytometric analysis: Single-cell suspensions were filtered through nylon mesh and stained with the following antibodies: CD3, CD4, CD8, CD25, IFN-g, PD-L1, CD11c, B220, CD11b, F4/80, and then analyzed by FCM using Fortessa.
SPCs from B6 mice were seeded at 5×10e5/well, cocultured with irradiated BALB/c SPCs (5×10e5/well) in the presence of recombinant human MMP13 (WT-MMP13) or mutant MMP13 (E223A, muMMP13) proteins for 5 days.

In the case of “mu-MMP13: catalytically-inactive E223A point mutant of MMP-13”, the “CFSElo CD25+ of CD4+ T cells” value (decreased from 21.1% without MMP13) is reported as 3.2% and the “CFSElo CD25+ of CD8+ T cells” value (down from 41.5% without MMP13) is reported as 2.5%.
